Where two headings read alike, the source gives them in different places.
Tested on: HT-29 cells
Assay: HT-29 cell necrosis/necroptosis inhibition (TNF-α + SMAC mimetic + zVAD-FMK; CellTiter-Glo cell viability)
Type: cell-based
Details: Homo sapiens, read-out: EC50 (Cell activity; Necrosis/Necroptosis Inhibitory Activity, Compounds 1-142)
Protocol: Compounds 1-319 (denoted as Compound Nos. 1 through 319 in Table 3 and 4) of the disclosure were tested for binding and cellular RIP1 inhibitory activity following the experimental procedures described below.
• Cell line: HT-29 (ATCC® HTB-38™) • Culture medium: McCOY's 5A, Gibco, Cat No. 16600-082 • FBS, Gibco, Cat No. 10099-141C • Trypsin: Gibco, Cat No. 25200-056 • DMSO: Sigma, Cat No. 67-68-5, 1L • Assay plate: Corning #3903 • Compound dilution plate: Corning #3357 • Inducers: TNFα, GenScript, Cat No. Z01001-50, • SmacM, Cat. No., HY-15989, MedChemExpress (MCE) • Z_VAD FMK, TargetMol, T6013 • Cell Titer-Glo® Luminescent Cell Viability Assay Kit: Promega, Cat No. G7573 • EnVision: PerkinElmer, 2105-0010 Methods Cell Seeding
1. HT-29 cells were checked every day to make sure that they were healthy and growing as expected. They were subjected to sub-culturing when they were approximately 80% confluent.
2. The culture medium, McCOY's 5A medium (Gibco, Cat No. 16600-082) with 10% fetal bovine serum or FBS (Gibco, Cat No. 10099-141C), was pre-warmed in a 37° C. water bath for at least 30 min.
3. When the cells had reached a desired level of confluency of 80% in a T75 flask, the medium was aspirated, and the cells were washed with warm phosphate buffered saline or PBS two times.
4. 2-3 ml fresh warm trypsin (Gibco, Cat No. 25200-056) solution was added to the washed cells. The flask with the cells was transferred to a 37° C. incubator.
5. After 5 minutes, the side of the flask was tapped, and the flask was examined under a microscope for detachment of the cells to the flask. If necessary, the cells were kept in the incubator for an additional 5-10 minutes, with occasional tapping, until lifting was complete.
6. The trypsin reaction was neutralized by transferring 6-9 ml cell culture medium to sterile 15 ml conical tubes, and by centrifuging the cell culture at 300×g for 7 minutes to pellet the cells (supernatant decanted).
7. The cells were resuspended in fresh cell culture medium and the cell counting was performed using a hemocytometer.
8. 100 μl of the resuspended cell culture medium containing ˜5,000 cells were transferred into each well of the sterile 96-well cell culture plate (Corning 3903) and cultured overnight at 37° C. with 5% CO2.
Compound Titration and Treatment
1. All test compounds were dissolved in DMSO (Dimethyl sulfoxide) to create a 20 mM stock.
2. 3 μl of each compound 20 mM stock was mixed with 27 μl DMSO, and the compound solution was further diluted at a titration ratio of 1:3 (20 μl compound solution+40 μl DMSO) till the 10 points end.
3. All culture medium was removed from assay plates filled with HT-29 cell cultures. The cells were then washed with 1 PBS, and resuspended in fresh, FBS-free McCOY's 5A medium containing a cocktail of TNF-α (10 ng/ml), a SMAC mimetic compound (6 μM) and Z-VAD-fluoromethylketone or zVAD-FMK (10 μM) to stimulate the HT-29 cells to increase RIP1 kinase levels and necroptosis.
4. 0.5 μL of the diluted compound solution was added to the corresponding 96-well assay plates.
5. The assay plates were incubated for 20 hours at 37° C. with 5% CO2.
1. The CellTiter-Glo® Luminescent Cell Viability Assay was employed to detect the ATP levels of viable HT-29 cells.
2. The CellTiter-Glo® buffer and the lyophilized substrate were equilibrated to room temperature prior to use.
3. The CellTiter-Glo® substrate was resuspended with CellTiter-Glo® buffer, then mixed by gently vortexing to obtain a homogeneous solution.
4. 20 μl the enzyme/substrate mixture was transferred by multi-channel pipetting into 96-well assay plates.
5. The assay plates were placed on an orbital shaker and the contents were shaken for 3 minutes to induce cell lysis.
6. The assay plates were incubated at room temperature for 10 minutes to stabilize the luminescent signal.
7. The luminescence signals were read and recorded with EnVision.
8. The geometric mean EC50 values were calculated from 10 points response dose with duplicates. In

[1] = HT-29 cells, TNF-α 10 ng/ml + SMAC mimetic 6 μM + zVAD-FMK 10 μM, 20 hours, geometric mean, 10 points in duplicate

Row | SMILES | EC50 [1] | EC50 (HT-29, 20 h)
1 | Cc1nnnn1-c1nc(N2CCN(C(=O)N3N=CC[C@H]3c3cc(F)cc(F)c3)CC2)ncc1F [Compound 23, (S)-(5-(3,5-difluorophenyl)-4,5-dihydro-1H-pyrazol-1-yl)(4-(5-fluoro-4-(5-methyl-1H-tetrazol-1-yl)pyrimidin-2-yl)piperazin-1-yl)methanone] | 0.1 to 100 nM | 
2 | O=C(N1CCN(c2ncc(F)c(-n3cnc(Cl)n3)n2)CC1)N1N=CC[C@H]1c1cc(F)cc(F)c1 [Compound 24, (S)-(4-(4-(3-chloro-1H-1,2,4-triazol-1-yl)-5-fluoropyrimidin-2-yl)piperazin-1-yl)(5-(3,5-difluorophenyl)-4,5-dihydro-1H-pyrazol-1-yl)methanone] | 0.1 to 100 nM | 
3 | O=C(N1CCN(c2ncc(F)c(-c3ccc(O)nc3)n2)CC1)N1N=CC[C@H]1c1cc(F)cc(F)c1 [Compound 25, (S)-(5-(3,5-difluorophenyl)-4,5-dihydro-1H-pyrazol-1-yl)(4-(5-fluoro-4-(6-hydroxypyridin-3-yl)pyrimidin-2-yl)piperazin-1-yl)methanone] | 0.1 to 100 nM | 
4 | Cc1nnnn1-c1ccnc(N2CCN(C(=O)N3N=CC[C@H]3c3cncc(F)c3)CC2)n1 [Compound 26, (S)-(5-(5-fluoropyridin-3-yl)-4,5-dihydro-1H-pyrazol-1-yl)(4-(4-(5-methyl-1H-tetrazol-1-yl)pyrimidin-2-yl)piperazin-1-yl)methanone] |  | 0.1 to 100 nM
5 | Cn1ccc(-c2nc(N3CCN(C(=O)N4N=CC[C@H]4c4cc(F)cc(F)c4)CC3)ncc2F)n1 [Compound 27, (S)-(5-(3,5-difluorophenyl)-4,5-dihydro-1H-pyrazol-1-yl)(4-(5-fluoro-4-(1-methyl-1H-pyrazol-3-yl)pyrimidin-2-yl)piperazin-1-yl)methanone] | 0.1 to 100 nM | 
6 | Cn1nccc1-c1nc(N2CCN(C(=O)N3N=CC[C@H]3c3cc(F)cc(F)c3)CC2)ncc1F [Compound 28, (S)-(5-(3,5-difluorophenyl)-4,5-dihydro-1H-pyrazol-1-yl)(4-(5-fluoro-4-(1-methyl-1H-pyrazol-5-yl)pyrimidin-2-yl)piperazin-1-yl)methanone] | 0.1 to 100 nM | 
7 | NC(=O)Cn1ccc(-c2nc(N3CCN(C(=O)N4N=CC[C@H]4c4cc(F)cc(F)c4)CC3)ncc2F)n1 [Compound 29, (S)-2-(3-(2-(4-(5-(3,5-difluorophenyl)-4,5-dihydro-1H-pyrazole-1-carbonyl)piperazin-1-yl)-5-fluoropyrimidin-4-yl)-1H-pyrazol-1-yl)acetamide] | 0.1 to 100 nM | 
8 | Cc1[nH]nnc1-c1nc(N2CCN(C(=O)N3N=CC[C@H]3c3cc(F)cc(F)c3)CC2)ncc1F [Compound 30, (S)-(5-(3,5-difluorophenyl)-4,5-dihydro-1H-pyrazol-1-yl)(4-(5-fluoro-4-(5-methyl-1H-1,2,3-triazol-4-yl)pyrimidin-2-yl)piperazin-1-yl)methanone] | 0.1 to 100 nM | 
9 | Cc1c(-c2nc(N3CCN(C(=O)N4N=CC[C@H]4c4cc(F)cc(F)c4)CC3)ncc2F)nnn1CC(N)=O [Compound 31, (S)-2-(4-(2-(4-(5-(3,5-difluorophenyl)-4,5-dihydro-1H-pyrazole-1-carbonyl)piperazin-1-yl)-5-fluoropyrimidin-4-yl)-5-methyl-1H-1,2,3-triazol-1-yl)acetamide] | 0.1 to 100 nM | 
10 | Cc1nn(CC(N)=O)nc1-c1nc(N2CCN(C(=O)N3N=CC[C@H]3c3cc(F)cc(F)c3)CC2)ncc1F [Compound 32, (S)-2-(4-(2-(4-(5-(3,5-difluorophenyl)-4,5-dihydro-1H-pyrazole-1-carbonyl)piperazin-1-yl)-5-fluoropyrimidin-4-yl)-5-methyl-2H-1,2,3-triazol-2-yl)acetamide] | 0.1 to 100 nM | 
11 | O=C(N1CCN(c2nccc(-c3cc[nH]n3)n2)CC1)N1N=CC[C@H]1c1cc(F)cc(F)c1 [Compound 33, (S)-(4-(4-(1H-pyrazol-3-yl)pyrimidin-2-yl)piperazin-1-yl)(5-(3,5-difluorophenyl)-4,5-dihydro-1H-pyrazol-1-yl)methanone] | 0.1 to 100 nM | 
12 | N#Cc1cc(F)cc([C@@H]2CC=NN2C(=O)N2CCN(c3nccc(-c4cc[nH]n4)n3)CC2)c1 [Compound 34, (5)-3-(1-(4-(4-(1H-pyrazol-3-yl)pyrimidin-2-yl)piperazine-1-carbonyl)-4,5-dihydro-1H-pyrazol-5-yl)-5-fluorobenzonitrile] | 0.1 to 100 nM | 
13 | O=C(N1CCN(c2nccc(-c3cc[nH]n3)n2)CC1)N1N=CC[C@H]1c1cccc(F)c1 [Compound 35, (S)-(4-(4-(1H-pyrazol-3-yl)pyrimidin-2-yl)piperazin-1-yl)(5-(3-fluorophenyl)-4,5-dihydro-1H-pyrazol-1-yl)methanone] | 0.1 to 100 nM | 
14 | O=C(N1CCN(c2nccc(-c3cc[nH]n3)n2)CC1)N1N=CC[C@H]1c1cncc(F)c1 [Compound 36, (S)-(4-(4-(1H-pyrazol-3-yl)pyrimidin-2-yl)piperazin-1-yl)(5-(5-fluoropyridin-3-yl)-4,5-dihydro-1H-pyrazol-1-yl)methanone] | 0.1 to 100 nM | 
15 | N#Cc1cccc([C@@H]2CC=NN2C(=O)N2CCN(c3nccc(-c4cc[nH]n4)n3)CC2)c1 [Compound 37, (S)-3-(1-(4-(4-(1H-pyrazol-3-yl)pyrimidin-2-yl)piperazine-1-carbonyl)-4,5-dihydro-1H-pyrazol-5-yl)benzonitrile] | 0.1 to 100 nM | 
16 | N#Cc1cncc([C@@H]2CC=NN2C(=O)N2CCN(c3nccc(-c4cc[nH]n4)n3)CC2)c1 [Compound 38, (S)-5-(1-(4-(4-(1H-pyrazol-3-yl)pyrimidin-2-yl)piperazine-1-carbonyl)-4,5-dihydro-1H-pyrazol-5-yl)nicotinonitrile] | 0.1 to 100 nM | 
17 | O=C(N1CCN(c2nccc(-c3cc[nH]n3)n2)CC1)N1N=CC[C@H]1c1ccccc1 [Compound 39, (S)-(4-(4-(1H-pyrazol-3-yl)pyrimidin-2-yl)piperazin-1-yl)(5-phenyl-4,5-dihydro-1H-pyrazol-1-yl)methanone] | 0.1 to 100 nM | 
18 | Cn1cc(-c2nc(N3CCN(C(=O)N4N=CC[C@H]4c4cc(F)cc(C#N)c4)CC3)ncc2F)nn1 [Compound 40] | 0.1 to 100 nM | 
19 | Cn1nncc1-c1nc(N2CCN(C(=O)N3N=CC[C@H]3c3cc(F)cc(C#N)c3)CC2)ncc1F [Compound 41] | 0.1 to 100 nM | 
20 | Cn1ncc(-c2nc(N3CCN(C(=O)N4N=CC[C@H]4c4cc(F)cc(C#N)c4)CC3)ncc2F)n1 [Compound 42] | 0.1 to 100 nM | 
21 | Cn1nncc1-c1nc(N2CCN(C(=O)N3N=CC[C@H]3c3cc(F)cc(F)c3)CC2)ncc1F [Compound 44, (S)-(5-(3,5-difluorophenyl)-4,5-dihydro-1H-pyrazol-1-yl)(4-(5-fluoro-4-(1-methyl-1H-1,2,3-triazol-5-yl)pyrimidin-2-yl)piperazin-1-yl)methanone] | 0.1 to 100 nM | 
22 | Cc1nc(C)n(-c2nc(N3CCN(C(=O)N4N=CC[C@H]4c4cc(F)cc(F)c4)CC3)ncc2F)n1 [Compound 46] | 0.1 to 100 nM | 
23 | Cc1nc(C)n(-c2nc(N3CCN(C(=O)N4N=CC[C@H]4c4cc(F)cc(C#N)c4)CC3)ncc2F)n1 [Compound 47, (S)-3-(1-(4-(4-(3,5-dimethyl-1H-1,2,4-triazol-1-yl)-5-fluoropyrimidin-2-yl)piperazine-1-carbonyl)-4,5-dihydro-1H-pyrazol-5-yl)-5-fluorobenzonitrile] | 0.1 to 100 nM | 
